From US20140227173A1, “CANCER TREATMENT WITH GAMMA-SECRETASE INHIBITORS” (The Johns Hopkins University, priority 2006, published 2014)
Entries after “also recorded” stand apart in the source; their conditions may differ.

Key:
DAOY [1] = assay: Clonogenic assay in soft agar; format: cell-based; conditions: equal number of viable cells seeded after 48 hours of treatment; 2 μM; vehicle 2.9%
Experimental: A clonogenic assay was used to determine whether cells capable of initiating anchorage-independent colonies were depleted by GSI-18. In vehicle-treated DAOY cultures, 2.9% of cells formed large colonies when seeded in soft agar (FIG. 7H). This number dropped to 0.26% when an equal number of viable cells were counted and seeded after 48 hours of treatment with GSI-18, and increased to 7.2% in the presence of constitutive Notch2 activation. Initiation of tumor xenografts was assayed next, a strategy used in several previous studies to examine the presence or absence of cancer stem cells (6-8). DAOY and DAOY:NICD2 cultures were treated with either 2 μM GSI-18 or vehicle alone, and the viable cells remaining after 48 hours counted using Trypan blue. […] To rule out the possibility that cells were alive but moribund following gamma-secretase inhibition, the experiment was repeated with cells counted after a recovery period.
The DAOY, PFSK, D283 and D425 Med cell lines were obtained from the American Type Culture Collection. […] Cell mass was measured using CellTITER assays according to the manufacturer's instructions (Promega, Madison, Wis.). Cell number and viability were assessed using the Guava PCA and Viacount reagent according to instructions (Guava Technologies, Heyward, Calif.). […] Soft agar assays were performed as previously described, with colonies counted using an automated reader (15).

DAOY [2] = assay: Flow cytometric analysis of the cell cycle; format: cell-based; conditions: 2 μM
Text: (§1) Double immunolabeling, using antibodies specific for nestin and for Ki67, a marker of proliferating cells, was used to determine effects of Notch pathway blockade on the cell cycle. […] While adult neural stem cells are generally thought to be relatively quiescent, during embryonic growth of the brain the stem cell compartment is highly proliferative. The high rate of division observed in stem-like MB cells may reflect their similarity to those in fetal germinal epithelium.
(§2) Flow cytometric analysis of S-phase fraction and cell cycle kinetics was performed using a FACSCalibur (Becton Dickinson, San Jose, Calif.) with CELL Quest, version 3.3 software (15). CD133 studies were performed using the same instrument, with antibodies from Miltenyi (Miltenyi Biotec, Auburn, Calif.) according to the manufacturer's instructions. Cells expressing levels of CD133 higher than those seen in IgG controls were considered positive. For analyses of side population, cells (10^6/ml) were incubated with Hoechst 33342 (3 μM, Molecular Probes, Carlsbad, Calif.) for 90 minutes at 37° C. in DMEM containing 2% FBS. Prior to analysis, cells were washed and resuspended in 2 μg/ml PI (Sigma, St. Louis, Mo.). Cells were analyzed on a LSR flow cytometer equipped with 424/44 nm band pass and 670 nm long pass optical filters (Omega Optical, Brattleboro, Vt.). […]

PFSK = assay: Flow cytometric analysis of the cell cycle; format: cell-based; conditions: 2 μM
Text: as §1, §2

D425Med = assay: Xenograft initiation by pretreated cells in athymic (nude) mice; format: in vivo; conditions: treated 48 hours, n=2
GBM neurospheres = assay: Proliferation (Ki67 index) in the Nestin positive population of GBM neurospheres; format: cell-based
Text: It has been shown that the Notch signaling pathway regulates normal stem cells in the Central Neural System (CNS), and that GBMs contain cancer stem cells (CSCs) with higher Notch activity (Cancer Research, 64:7011-21, 2004; Cancer Cell, 9:391-403, 2006). However, it has not been known if Notch pathway blockade could target CSCs in GBM. […] In the present study, we used GBM neurospheres to examine the effects of Notch pathway blockade in GBM. […] Furthermore, overexpression of an active form of Notch2 (NICD2) increases tumor growth in vitro.

GBM20913 = assay: Survival of mice bearing intracranial xenografts of pretreated GBM neurosphere cells; format: in vivo; conditions: vs vehicle (DMSO) treated cells
Akt = Akt phosphorylation and cleaved Caspase 3 (Western blot) in DAOY medulloblastoma cells; format: cell-based
Experimental: (§3) (A) Increase of cleaved Caspase 3 and loss of Akt phosphorylation is induced by 0.4 uMor higher levels of GSI-18, while overall levels of Akt and GAPDH are unchanged in DAOY medulloblastoma cells. (B) Cell death in 2 uM GSI-18 is reduced in a representative subclone of DAOY expressing activated Akt as compare to vector transfected cells. (C) Loss of Akt phosphorylation and activation of Caspase3 cleavage is induced by 2 μM or higher levels of GSI-18, while overall levels of Akt and GAPDH are unchanged in GBM neurosphere cells.
(§4) It has previously been shown that Akt is a critical effector of Notch-regulated survival and growth outside the brain (26, 27). Therefore, it was examined whether Akt was also a mediator of the pro-survival and pro-growth effects of Notch in brain tumors. GSI-18 blocks the phosphorylation of Akt required for its activation at concentrations as low as 0.4 μM (FIG. 7F). […] Thus the pro-survival effects of Notch signaling in MB appear to be mediated at least in part by Akt.
Quantitative RT PCR for Notch1, Notch2 and Hes1 was performed as previously described (29), with all reactions normalized to actin (Applied Biosystems, Foster City, Calif.). Commercially available Assay on Demand Taqman primers and probes were used to measure mRNA for Nestin, Bmi1, Tuj1 and GABRA6. Western blots contained 20 μg of protein per lane on a 10% Tris-glycine SDS-PAGE gel (Invitrogen). […]

[3] = test system: DAOY expressing activated Akt; assay: Apoptosis and growth in DAOY subclones expressing constitutively active Akt; format: cell-based
Experimental: as §3, §4
The DAOY, PFSK, D283 and D425 Med cell lines were obtained from the American Type Culture Collection. The low-passage MB line MB2 was derived from a tumor resected at Johns Hopkins Hospital. For treatment studies, cell were plated and allowed to grow overnight in MEM (Invitrogen, Carlsbad, Calif.) containing 10% FBS, then media was replaced the next morning with low serum (0.5% FBS) MEM containing GSI dissolved in DMSO. RNA and protein extractions, and all cell-based assays, were performed 48 hours after drug application unless otherwise noted. […] Cell mass was measured using CellTITER assays according to the manufacturer's instructions (Promega, Madison, Wis.). Cell number and viability were assessed using the Guava PCA and Viacount reagent according to instructions (Guava Technologies, Heyward, Calif.). Soft agar assays were performed as previously described (15) and scored either manually after 4 weeks or using as automated reader after 6 weeks. […] Soft agar assays were performed as previously described, with colonies counted using an automated reader (15).

In the case of `O=S(=O)(NC1C2CCC1Cc1ccccc1C2)c1cccs1` (stereo not drawn) [GSI-18, [11-endo]-N-(5,6,7,8,9,10-hexahydro-6,9-methanobenzo[α][8]annulen-11-yl)-thiophene-2-sulfonamide], the “cells forming large colonies in soft agar” value (DAOY [1]) is reported as 0.26%, the “G1/G0, S phase and G2/M cell fractions” value (DAOY [2]) is reported as “increased the G1/G0 cell fraction and decreased the S phase and G2/M fractions” and the “G1/G0, S phase and G2/M cell fractions” value (PFSK) is reported as “increased the G1/G0 cell fraction and decreased the S phase and G2/M fractions”. For the same molecule, the “engraftment of pretreated cells” value (D425Med) was “failed to engraft”, the “proliferation (Ki67 index) in the Nestin positive population” value (GBM neurospheres) was “decrease in proliferation (Ki67 index)” and the “survival of mice with intracranial xenografts from pretreated cells” value (GBM20913) was “prolonged survival; also recorded: longer survival”. For the same molecule, the “levels inducing increase of cleaved Caspase 3 and loss of Akt phosphorylation” value (Akt; DAOY medulloblastoma cells) was no less than 0.4 µM, the “concentrations blocking the phosphorylation of Akt” value (Akt; MB cells) was no less than 0.4 µM and the “cell death vs vector transfected cells” value ([3]; 2 uM, representative subclone of DAOY expressing activated Akt) was “reduced”. For the same molecule, the “apoptotic rate on exposure” value ([3]; MB cells stably transfected with constitutively active Akt, 2 μM) was “not significantly increased” and the “inhibition of cell growth in Akt-transfected subclones” value ([3]; two DAOY subclones with constitutively active Akt, data not shown) was “partially rescued”.
